From patent US20230202973A1, “BARNESIN A, DERIVATIVES AND USES THEREOF” (Leibniz-Institut Für Naturstoff-Forschung Und …, priority 2018, published 2023)
pIC50: −log10 of the molar value. Where two headings read alike, the source gives them in different places. Square brackets hold non-standard residues; d marks the D form. Peptide text beside a SMILES is read from it. * marks the point of attachment. Isovaleryl = CC(C)CC(=O)*

Columns and labels:
papain [1] = molecular target: T1, papain (Carica papaya, UniProt P00784); conditions: reported in literature for known compounds; read-out: Papain, reported inhibitory activity as IC50 value; cited from earlier work
T1 construct: purchased Sigma-Aldrich P4762
T1 sequence (P00784 134-345): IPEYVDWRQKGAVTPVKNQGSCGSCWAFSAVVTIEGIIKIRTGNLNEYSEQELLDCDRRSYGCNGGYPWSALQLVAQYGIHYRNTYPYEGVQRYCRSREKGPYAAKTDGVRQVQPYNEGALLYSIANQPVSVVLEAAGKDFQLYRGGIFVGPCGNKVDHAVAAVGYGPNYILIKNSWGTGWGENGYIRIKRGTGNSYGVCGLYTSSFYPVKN

Cathepsin B [2] = molecular target: T2, Cathepsin B (Homo sapiens, UniProt P07858); conditions: reported in literature, read-out: Cathepsin B, reported inhibitory activity as IC50 value, cited from earlier work
[3] = tested on: thermolysin (Sigma-Aldrich, P1512); conditions: 10 mM EDTA
Description: Protease Assays with azocasein: Protease inhibition assays against the proteases papain, ficin, trypsin, pepsin and thermolysin were performed according to the protocol of Garcia-Carreño (loc. cit.) in a reaction buffer containing 25 mM TRIS-HCl, 0.15 M NaCl, pH 7.2 (or pH 3.5 for aspartic protease). The total assay volume was 47 μL buffer with 2 μL of the protease as well as 1 μL of suitable inhibitor or corresponding inhibitor solvent (100% MeoH or water). […]
Inhibitors were dissolved in 100% MeOH or water and added to the assay (1 μL); final concentration: 2% MeOH. […] Extract absorbance controls were performed using inhibitor (1 μL in MeOH) without protease. […]
Samples were incubated with buffer and suitable inhibitor (or without for negative controls) for 1 h at r.t. and the reaction was started afterward by adding 50 μl of […] substrate and incubated for 1 h at 37° C. […] The hydrolyzed substrate supernatant was incubated in an equal volume of 0.5 N NaOH for 5 min and the absorbance was measured at 440 nm. […]
(§1) The log IC50 values were determined using the standard curves analyzing tool with four parameter logistic equation of SigmaPlot12 with technical triplicates. Propagation of error was calculated using the standard error and log IC50 values where the equation of error propagation is defined as Δy=0.43Δx/x.

Trypsin [4] = conditions: reported in literature; cited from earlier work
Cathepsin B [5] = molecular target: T2, Cathepsin B; test: Activity test against cathepsin B (initial screen, Table 5); assay type: biochemical; set-up: dose or concentration left out as unconfirmed
Description: (§2) Activity Tests Against Cathepsin B, Cathepsin L and Rhodesain.
(§3) The determination of the activity of the inhibitors against hCatL and RD was performed in fluorescence-based assays in accordance with the assays described in Giroud et al., ChemMedChem 12 (2017), 257-270 and Schirmeister, Bioorganic & Medicinal Chemistry Letters 27 (2017) 45-50. The biological activities against hCatL were determined using Cbz-Phe-Arg-AMC as substrate, which releases AMC (7-amino-4-methylcoumarin) after amide bond cleavage by the enzyme. The proteolytic activity of the enzyme can be monitored spectrophotometrically by the increase of fluorescence intensity by release of AMC (emission at 460 nm) upon hydrolysis. An initial screen at an inhibitor concentration […] was performed to identify ligands with an inhibition of hCatL and RD higher than 80%.

hCatL = hCatL (Homo sapiens, UniProt P07711); test: Fluorescence-based activity test against cathepsin L (Cbz-Phe-Arg-AMC); assay type: biochemical; set-up: dose or concentration left out as unconfirmed
Sequence of hCatL (P07711 114-333): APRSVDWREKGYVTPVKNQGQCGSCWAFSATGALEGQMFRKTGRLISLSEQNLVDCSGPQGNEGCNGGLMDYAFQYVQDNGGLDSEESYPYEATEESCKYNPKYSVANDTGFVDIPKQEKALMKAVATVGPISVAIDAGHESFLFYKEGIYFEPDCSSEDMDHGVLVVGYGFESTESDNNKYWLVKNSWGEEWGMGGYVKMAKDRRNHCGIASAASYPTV
Description: as §2, §3

Rhodesain = Rhodesain (Trypanosoma brucei rhodesiense, UniProt Q95PM0); test: Fluorescence-based activity test against rhodesain; assay type: biochemical; conditions: initial screen at an inhibitor concentration of 20 mM; ni = no inhibition
Sequence of Rhodesain (Q95PM0 entry or part of it): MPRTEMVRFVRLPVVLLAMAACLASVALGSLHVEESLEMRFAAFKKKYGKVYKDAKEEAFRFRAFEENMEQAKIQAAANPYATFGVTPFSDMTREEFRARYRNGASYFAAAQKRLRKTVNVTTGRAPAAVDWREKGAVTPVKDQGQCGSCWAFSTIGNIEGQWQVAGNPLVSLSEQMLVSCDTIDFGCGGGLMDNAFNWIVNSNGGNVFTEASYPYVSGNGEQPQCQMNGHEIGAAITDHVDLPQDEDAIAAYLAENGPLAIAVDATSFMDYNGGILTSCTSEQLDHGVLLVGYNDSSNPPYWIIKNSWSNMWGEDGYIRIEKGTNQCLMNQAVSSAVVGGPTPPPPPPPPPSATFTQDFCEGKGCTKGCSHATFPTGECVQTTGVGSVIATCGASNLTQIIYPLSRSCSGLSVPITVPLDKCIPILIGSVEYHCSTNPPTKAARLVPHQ
Description: as §2
Rhodesain is a central cysteine protease from Trypanosoma brucei rhodesiense and a potential drug target against human African trypanosomiasis (sleeping sickness).
as §3

papain [6] = molecular target: T1, papain; test: Protease assay with azocasein: papain; assay type: biochemical; conditions: azocasein substrate, pH 7.2, n.i. = no inhibition
Description: (§4) Protease Assays with azocasein: Protease inhibition assays against the proteases papain, ficin, trypsin, pepsin and thermolysin were performed according to the protocol of Garcia-Carreño (loc. cit.) in a reaction buffer containing 25 mM TRIS-HCl, 0.15 M NaCl, pH 7.2 (or pH 3.5 for aspartic protease). The total assay volume was 47 μL buffer with 2 μL of the protease as well as 1 μL of suitable inhibitor or corresponding inhibitor solvent (100% MeoH or water). Final concentration of proteases was as follows: 2 mg/mL for papain (Sigma-Aldrich, P4762), 600 μg/mL for ficin (Sigma-Aldrich, F6008), 80 μg/mL for trypsin (Thermo Fisher, 23266), 60 mg/mL for pepsin (Sigma-Aldrich P6887)) and 2 μg/mL for thermolysin (Sigma-Aldrich, P1512).
(§5) Inhibitors were dissolved in 100% MeOH or water and added to the assay (1 μL); final concentration: 2% MeOH. Samples of control inhibitors were prepared as follows: (1) serine protease (trypsin): PMFS (2 mM) and soybean trypsin inhibitor (240 μM) (Sigma-Aldrich, T1021), (2) cysteine proteases (papain and ficin): iodacetamide (2 mM), (3) […] (pepsin): pepstatin A (1 μg/mL) (Sigma-Aldrich, P4265), (4) metalloprotease (thermolysin): EDTA (10 mM). […] Negative controls were performed with protease alone (without inhibitor) and MeOH at a final concentration of 2% (reference for activity of 100%). Extract absorbance controls were performed using inhibitor (1 μL in MeOH) without protease. Blanks were performed using 49 μL buffer and 1 μL MeOH.
(§6) Samples were incubated with buffer and suitable inhibitor (or without for negative controls) for 1 h at r.t. and the reaction was started afterward by adding 50 μl of […] substrate and incubated for 1 h at 37° C. After stopping the reaction with trichloracetic acid (TCA), the separation of the precipitate was accomplished by centrifugation at 6500 g for 5 min. The hydrolyzed substrate supernatant was incubated in an equal volume of 0.5 N NaOH for 5 min and the absorbance was measured at 440 nm. OD values of the protease control without inhibitor were used as reference for a 100% activity.
as §1

ficin = test: Protease assay with azocasein: ficin; assay type: biochemical; conditions: azocasein substrate, pH 7.2, n.i. = no inhibition
Description: as §4, §5, §6, §1

Cathepsin B [7] = molecular target: T2, Cathepsin B; test: Cathepsin B inhibition assay (Z-Arg-Arg-AMC); assay type: biochemical; conditions: Z-Arg-Arg-AMC substrate, pH 6.0, n.i. = no inhibition
Description: Cathepsin B inhibition assay. Cathepsin B inhibition assay was determined according to Hiwasa et al. (loc. cit.) with minor changes. Cathepsin B was purchased from Sigma Aldrich (C0150) and stored in 50 mM sodium acetate, 1 mM EDTA, pH 5 (adjusted with acetic acid). Cathepsin B was activated by preincubation at 40° C. for 10 min in assay buffer (0.1 M sodium acetate 1.3 mM EDTA, pH 6.0 adjusted with acetic acid, 2 μM DTT, 2.6 mM cysteine and 0.05% Triton X100). […] Final concentration of cathepsin B was 0.1 mg/ml. […] After stopping the reaction with 85 μL buffer containing 100 mM sodium monochlor acetate, 30 mM sodium acetate, 70 mM acetic acid, the hydrolyzed substrate was detected at an excitation wavelength of 380 nm and a fluorescence wavelength of 450 nm, using a fluorophotometer. 1 μL of 1.5 mM leupeptin was used as enzyme inhibition control.

trypsin [8] = molecular target: T3, trypsin (Bos taurus, UniProt P00760); test: Protease assay with azocasein: trypsin; assay type: biochemical; conditions: azocasein substrate, pH 7.2; n.i. = no inhibition
T3 construct: purchased Thermo Fisher 23266
T3 sequence (P00760 24-246): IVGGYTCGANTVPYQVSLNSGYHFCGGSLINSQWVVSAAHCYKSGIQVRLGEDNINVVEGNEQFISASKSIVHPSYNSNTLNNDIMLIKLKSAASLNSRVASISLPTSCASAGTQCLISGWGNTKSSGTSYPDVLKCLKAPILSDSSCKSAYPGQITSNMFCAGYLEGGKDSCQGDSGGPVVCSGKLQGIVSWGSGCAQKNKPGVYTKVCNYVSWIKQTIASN
Description: as §4, §5, §6, §1

pepsin = molecular target: T4, pepsin (Sus scrofa, UniProt P00791); test: Protease assay with azocasein: pepsin; assay type: biochemical; conditions: azocasein substrate, pH 3.5; n.i. = no inhibition
T4 construct: purchased Sigma-Aldrich P6887
T4 sequence (P00791 60-385): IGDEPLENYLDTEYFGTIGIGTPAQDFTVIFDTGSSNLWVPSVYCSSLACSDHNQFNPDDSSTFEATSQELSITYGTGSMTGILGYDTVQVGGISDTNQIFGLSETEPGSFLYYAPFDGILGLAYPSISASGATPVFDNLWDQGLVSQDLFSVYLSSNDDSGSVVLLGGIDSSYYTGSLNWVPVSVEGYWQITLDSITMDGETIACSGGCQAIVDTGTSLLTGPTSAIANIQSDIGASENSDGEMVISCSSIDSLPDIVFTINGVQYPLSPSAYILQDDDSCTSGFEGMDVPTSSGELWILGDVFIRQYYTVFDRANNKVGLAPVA
Description: as §4, §5, §6, §1

thermolysin = molecular target: T5, thermolysin (Bacillus thermoproteolyticus, UniProt P00800); test: Protease assay with azocasein: thermolysin; assay type: biochemical; conditions: azocasein substrate, pH 7.2; n.i. = no inhibition
T5 construct: purchased Sigma-Aldrich P1512
T5 sequence (P00800 233-548): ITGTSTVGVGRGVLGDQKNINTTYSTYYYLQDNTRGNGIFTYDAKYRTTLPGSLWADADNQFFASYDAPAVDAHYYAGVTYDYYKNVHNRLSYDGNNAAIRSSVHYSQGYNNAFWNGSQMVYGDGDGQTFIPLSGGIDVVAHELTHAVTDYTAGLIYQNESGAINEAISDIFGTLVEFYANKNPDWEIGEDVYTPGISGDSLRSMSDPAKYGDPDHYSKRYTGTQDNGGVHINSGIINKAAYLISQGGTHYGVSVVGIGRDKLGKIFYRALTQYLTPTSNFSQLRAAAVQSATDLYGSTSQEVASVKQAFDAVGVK
Description: as §4, §5, §6, §1

trypsin [9] = conditions: reported in literature for known compounds; read-out: Trypsin, reported inhibitory activity as IC50 value; cited from earlier work

CC(C)CC(=O)N[C@H](Cc1ccc(O)cc1)C(=O)N[C@H](C(=O)N[C@@H](C=O)Cc1ccccc1)C(C)C [YM 51084] (Isovaleryl-[dY]-Val-[dF]-aldehyde)
pIC50 (papain [1]): 5.66 | IC50 (Cathepsin B [2]; cells printed in nM): 12 nM

O=C(O)CN(CCN(CC(=O)O)CC(=O)O)CC(=O)O [EDTA]
inhibition of enzyme activity (control inhibitor), thermolysin [3]: > 95%

CC[C@H](NC(=O)C[C@H](O)[C@H](CC(C)C)NC(=O)[C@H](CC(C)C)NC(=O)[C@@H]1N[C@H]1C(=O)O)C(=O)N[C@H](/C=C/C(=O)O)CCCNC(=N)N [Miraziridine A]
IC50 (Cathepsin B [2]; cells printed in μM): 2050 nM | pIC50 (Trypsin [4]): 4.22

CCCCC/C=C/C(=O)N[C@H](Cc1ccc(O)cc1)C(=O)N[C@H](/C=C/C(=O)O)CCCNC(=N)N [drawing 49]
inhibition (Cathepsin B [5]): 5% | inhibition (hCatL): 7% | Rhodesain (%) inhibition (Rhodesain): ni

CCCCCCCC(=O)N[C@@H](Cc1ccc(O)cc1)C(=O)N[C@H](/C=C/C(=O)O)CCCNC(=N)N [17,18-Dihydrobarnesin (4), 17,18-Dihydrobarnesin]
pIC50 (papain [6]; read-out: Papain, inhibitory activity as IC50 value): 5.32 | pIC50 (ficin; read-out: Ficin, inhibitory activity as IC50 value): 5.94 | pIC50 (Cathepsin B [7]; read-out: Cathepsin B, inhibitory activity as IC50 value): 7.06 | Trypsin, inhibitory activity as IC50 value (trypsin [8]): n.i. | Pepsin, inhibitory activity as IC50 value (pepsin): n.i. | Thermolysin, inhibitory activity as IC50 value (thermolysin): n.i.

Cystatin
pIC50 (papain [1]): 7.54 | pIC50 (trypsin [9]): 5.46

CCCCCCCC(=O)N[C@@H](Cc1ccc(O)cc1)C(=O)N[C@@H](CCCNC(=N)N)CCC(=O)OC [(S), 2,3-17,18-Tetrahydrobarnesin A methyl ester, reference compound]
Papain, inhibitory activity as IC50 value (papain [6]): n.i. | Ficin, inhibitory activity as IC50 value (ficin): n.i. | Cathepsin B, inhibitory activity as IC50 value (Cathepsin B [7]): n.i. | Trypsin, inhibitory activity as IC50 value (trypsin [8]): n.i. | Pepsin, inhibitory activity as IC50 value (pepsin): n.i. | Thermolysin, inhibitory activity as IC50 value (thermolysin): n.i.
